Results reported in US20240252677A1, “ONE-COMPONENT DELIVERY SYSTEM FOR NUCLEIC ACIDS” (The Trustees of the University of Pennsylvania, priority 2021, published 2024).
Where two headings read alike, the source gives them in different places.

Legend:
[1] = Stability of DNPs by DLS after storage at 5° C.; type: physicochemical; set-up: key: Excellent: the original sizes and distribution remains almost the same after storage; Good: the original relatively big sizes became smaller or broad size distribution became narrower; Not stable: the original relatively big sizes or broad size distribution remained almost the similar level, or the original relatively small sizes became bigger or narrow size distribution became broader; details: storage time 2 days; CIAJD 4.0 mg/mL; CLuc-mRNA 0.1 mg/mL; acetate buffer pH 4.0
Procedure: The stability of the DNPs as assayed by DLS. All the samples are prepared in acetate buffer. The stabilities of the constructs were ranked: Excellent (in bold)—the original sizes and distribution remains almost the same after storage; Good—the original relatively big sizes became smaller or broad size distribution became narrower; Not stable—the original relatively big sizes or broad size distribution remained almost the similar level, or the original relatively small sizes became bigger or narrow size distribution became broader.

[2] = Table 16, IAJDs marked a (Zhang et al., J. Am. Chem. Soc. 2021); IAJD 4 mg/mL, Luc-mRNA 0.10 mg/mL, acetate buffer 10 mM pH 4.0; cited from earlier work
[3] = test system: HEK293T cells; details: Table 16, IAJDs marked a (Zhang et al., J. Am. Chem. Soc. 2021); HEK 293T cells, 125 ng/well, n=3; cited from earlier work
[4] = test system: BALB/c mice; details: cited from earlier work
[5] = Table 18, symmetric IAJDs, results available in the literature
[6] = Table 20, corresponding symmetric IAJDs (literature per Table 18)

Compound | Ranking of stability [1] | PDI [2] | Size (d, nm) [2] [nm] | Luminescence [3] | In vivo activity (total flux, p/s) [4, 5] | In vivo activity (total flux, p/s) [4, 6]
Diheptyl 5,5′-((5-(((4-(4-methylpiperazin-1-yl)butanoyl)oxy)methyl)-1,3-phenylene)bis(oxy)) dipentanoate [IAJD 85] | Excellent |  |  |  |  | 
CCCCCCCCCCCCCCCCCCOc1cc(COC(=O)CCCN2CCN(C)CC2)cc(OCCCCCCCCCCC)c1 [IAJD 81, 3-(Octadecyloxy)-5-(undecyloxy)benzyl 4-(4-methylpiperazin-1-yl)butanoate] |  | 0.287 | 111 | 206,161 |  | 
CCCCCCCCCCCCOc1cc(COC(=O)CCCN2CCN(CCO)CC2)cc(OCCCCCCCCCCCC)c1 [IAJD 71, 3,5-Bis(dodecyloxy)benzyl 4-(4-(2-hydroxyethyl)piperazin-1-yl)butanoate] |  | 0.451 | 237 | 473,548 | 3.79 × 10^7 p/s | 3.79 × 10^7 p/s
CCCCCCCCCCCCCCOc1cc(COC(=O)CCCN2CCN(C)CC2)cc(OCCCCCCCCCCC)c1 [IAJD 105, 3-(Tetradecyloxy)-5-(undecyloxy)benzyl 4-(4-methylpiperazin-1-yl)butanoate] |  | 0.294 | 94 | 85 |  | 
CCCCCCCCCCCCCCCCCCOc1cc(COC(=O)CCCN2CCN(C)CC2)cc(OCCCCCCCCCCCC)c1 [IAJD 107, 3-(Dodecyloxy)-5-(octadecyloxy)benzyl 4-(4-methylpiperazin-1-yl)butanoate] |  | 0.279 | 146 | 93,745 |  | 
CCCCCCCCCCCCCCCCOc1cc(COC(=O)CCCN2CCN(C)CC2)cc(OCCCCCCCCCCC)c1 [IAJD 86, 3-(Hexadecyloxy)-5-(undecyloxy)benzyl 4-(4-methylpiperazin-1-yl)butanoate] |  | 0.234 | 91 | 47,066 |  | 
CCCCCCCCCCCCCCCCCCOc1cc(COC(=O)CCCN2CCN(CCO)CC2)cc(OCCCCCCCCCCCCCCCCCC)c1 [IAJD 99, 3,5-Bis(octadecyloxy)benzyl 4-(4-(2-hydroxyethyl)piperazin-1-yl)butanoate] |  |  |  |  | 4.49 × 10^6 p/s | 4.49 × 10^6 p/s
CCCCCCCCCCCCCCCCOc1cc(COC(=O)CCCN2CCN(C)CC2)cc(OCCCCCCCCCCCC)c1 [IAJD 106, 3-(Dodecyloxy)-5-(hexadecyloxy)benzyl 4-(4-methylpiperazin-1-yl)butanoate] |  | 0.275 | 105 | 309 |  | 
CCCCCCCCOc1cc(COC(=O)CCCN2CCN(CCO)CC2)cc(OCCCCCCCC)c1 [IAJD 89] |  |  |  |  | 5.92 × 10^7 p/s | 
